Assay results reported in US20220362219A1, “RETINA REGENERATION THROUGH EPIGENETICS MANIPULATION” (Baylor College of Medicine, priority 2019, published 2022).
“Also recorded” adds a separate entry of the source.

Assays:
[1] = tested on: Spata7 mutant retina; experiment: Intravitreal injection in Spata7 knockout retinal degeneration mouse model (H&E, immunohistochemistry); format: in vivo
Experimental: (§1) FIGS. 1A-1C concern an example of retinal regeneration in Spata7-mutated (KO) retinal cells. (1A) One example of a timeline for studies, where the examples of timepoints are post-natal day 14, 21, and 34, respectively. (1B) Hematoxylin and eosin (H&E) staining for Spata7 KO mice versus wild-type control. Eyes were injected with SYC1127 (treated) eye compared to PBS-injected control. (1C) Immunofluorescence staining for Cone-rod homeobox protein (CRX, a marker for photoreceptor cells and bipolar cells); Glial fibrillary acidic protein (GFAP, a marker for Müller glial cells); and RNA Binding Protein, MRNA Processing Factor (RBPMS, a marker for retinal ganglion cells (RGC)) in Spata7 KO-treated eye (treated with SYC1127) and control eye (treated with PBS).
(§2) H&E staining of all three neural layers of the retina is shown following intravitreal injection of SYC1127 in wild-type mice vs. Spata7 KO mutants.
Immunohistochemistry using antibodies that bind Sox9 or GFAP, both markers of Müller glial cells, is provided for SYC1127-treated Spata7 KO mutants vs. PBS controls.
In this present example, one example of a potent Histone Acetylation Transferase inhibitor (HATi), the compound SYC1127, is administered by intravitreal injection in a retinal degeneration mouse model having a knockout mutation in Spata7. An example of an injection regimen is provided in FIG. 1A, in which there are multiple intravitreal injections. […] To examine if these newly generated cells are indeed differentiated properly, immunohistochemistry (IHC) using antibodies against certain cell type-specific markers is performed. […] The number of regenerative cells is much higher than that of previously reported by others, making it useful for therapy.
Retinal regeneration is induced through epigenomics manipulation, in particular embodiments. […] As at least one type of retinal cells, retinal ganglion cells are induced following administration of SYC1127.

[2] = tested on: wild-type control retina; experiment: Intravitreal injection in wild-type control retina (H&E); format: in vivo
Experimental: as §1, §2
In this present example, one example of a potent Histone Acetylation Transferase inhibitor (HATi), the compound SYC1127, is administered by intravitreal injection in a retinal degeneration mouse model having a knockout mutation in Spata7. An example of an injection regimen is provided in FIG. 1A, in which there are multiple intravitreal injections. […]

[3] = tested on: histone markers H3K27Ac and H3K9Me3 in the retina; experiment: Chromatin modification in the retina after intravitreal injection (antibody staining of histone markers); format: in vivo, mouse; conditions: FIG. 2
Description: The outer nuclear layers (ONL) and the inner nuclear layers (INL) of the respective retina are shown. Markers related to reduced levels of histone acetylation (H3K27Ac) and increased levels of histone […] are identified with corresponding antibodies.
Further evidence is provided that HATi are useful for chromatin modifications that lead to epigenomic manipulation, thereby leading to regeneration of retinal cells. […] Upon intravitreal injection of the compound SYC1127, there is reduction in the level of histone acetylation as expected, such as with H3K27Ac (an epigenetic modification to Histone H3 that is a mark that indicates the acetylation at the 27th lysine residue of the Histone H3 protein). At the same time, the level of chromatin-repressing histone markers, such as H3K9Me3, is increased.

## c1cc(-c2ccc(-c3ncc(OCC4CCNCC4)nc3-c3ccc(-c4ccoc4)cc3)cc2)co1 [SYC1127, 2,3-bis(4-(furan-3-yl)phenyl)-5-(piperidin-4-ylmethoxy)pyrazine]
[1]; Spata7 KO, IHC, FIG. 5
  migration of Müller glial cells: Migration of Müller glial cells from the INL to photoreceptor and retinal ganglion cell layers
  number of Müller glial cells (Sox9 positive cells and GFAP staining): Increase in the number of Müller glial cells
[1]; intravitreal injection, H&E, FIG. 1B
  thickness of neuronal layers vs uninjected Spata7 mutant retina: thickening of all three neuronal layers
[1]; intravitreal injection, H&E, FIG. 1B / FIG. 3
  cell proliferation in Spata7 mutant retina: extensive cell proliferation; also recorded: proliferation of all three neural layers of the retina
[1]; intravitreal injection, IHC, FIG. 1C
  Müller glia cell activation (GFAP staining): massive elevated Müller glia cell activation
[1]; intravitreal injection, IHC, FIG. 1C / FIG. 4
  retinal ganglion cells (RBPMS staining): multiple layers of cells that are positive for retinal ganglion cells (RGC) are observed; also recorded: increase of cells in the RGC layer
[1]; intravitreal injection, overall conclusion
  regeneration of retinal neurons in degenerating retina: complete regeneration of retinal neurons
[2]; FIG. 1B
  toxicity of injection of the drug: not toxic
[2]; wild-type, FIG. 1B / FIG. 3
  change in wild-type control retina: little change; also recorded: no changes are observed
[3]
  level of chromatin-repressing histone markers (H3K9Me3): increased
  level of histone acetylation (H3K27Ac): reduction
